According to patent publication US12448425B2, “Therapeutic peptides” (Board of Regents, The University of Texas System, priority 2019, dated 2025):

System: EphB4 and Crk1
Test: Phosphorylation of EphB4 and Crk1 in A2780cp20 cells (IP/immunoblot)
Type: cell-based, human
Method: FIGS. 2A-C: BIDEN-AP acts as an EphB4 agonist. (FIG. 2A) BIDEN-AP induced phosphorylation of EphB4 and the associated […] (Crk1). After 16 h serum starvation, A2780cp20 cells were incubated with EFNB2-Fc (20 nM), TNYL-RAW (SEQ ID NO: 12) (50 μM), or BIDEN-AP (50 μM) for 30 min or 2 h. The uncropped blots were available at Supplemental FIG. 11. (FIG. 2B) BIDEN-AP inhibited A2780cp20 cell invasion compared to untreated control (CTL). A modified Boyden transwell chamber coated with human defined matrigel was used. Experiments were performed in triplicate. Data are presented as mean±SD. ***p<0.001. (FIG. 2C) Alexa647-BIDEN-AP was internalized via receptor-mediated endocytosis. A2780cp20 cells were incubated at 37° C. with Alexa647-BIDEN-AP (0.05 μM), Alexa647-TNYL-RAW (SEQ ID NO: 12) (0.05 μM), or Alexa647-BIDEN-AP (0.05 μM) plus unlabeled TNYL-RAW (SEQ ID NO: 12) (5 μM, blocking). Alexa647-BIDEN-AP but not Alexa647-TNYL-RAW (SEQ ID NO: 12) was internalized into the A2780cp20 cells.
Total protein lysates were harvested and subjected to Nupage-SDS separation followed by immunoblotting. […] CTL, untreated control. The uncropped blots were available at Supplemental FIG. 11.
Immunoblotting, immunoprecipitation, and co-immunoprecipitation. […] The protein concentrations were determined by using a BCA Protein Assay Reagent kit (Pierce Biotechnology, Rockford, IL). […]

**Q.** Which “phosphorylation of EphB4 and Crk1 in vitro” value does the source give for “CCPM-BIDEN-AP: nano-conjugate of Cys-BIDEN-AP on core-crosslinked polymeric micelles via maleimide (GMBS) (CTNYLFSPNGPIARAW; D-residues)” here?
**A.** The value was “induce EphB4 and Crk1 phosphorylation”.
